From patent US8754060B2, “Methods and compositions for inhibition of axonal degeneration by modulation of the DLK/JNK pathway” (Washington University, priority 2008, dated 2014)

What was measured:
DRG axons = assay: DRG axotomy model: axon degeneration 24 hours post-axotomy (phase contrast, degeneration index); format: cell-based, mouse
Text: In these experiments, the inventors cultured embryonic mouse dorsal root ganglion cells (DRGs) for 14-16 days to allow their axons to radiate from the central core of cell bodies before severing the axons with a micro-scalpel. […] Axotomized DLK mutant axons have a 65%+/−3.2% (se) decrease in degeneration index (DI) relative to controls (p<0.0001, n=8 individual axotomized DRG cultures per condition, t-test). Vincristine treatment induces 59%+/−6.3% (se) less DI in DLK mutants relative to controls (p<0.002, n=7 DRG cultures per condition, t-test). […] The initially smooth and continuous axonal processes become rough and irregular axon fragments. The extent of axon breakdown was quantified by measuring the fraction of axonal area occupied by fragmented axons (degeneration index, DI). […] Because non-neuronal cells are eliminated in this DRG culture system, we concluded that DLK must be required within neurons themselves for the normal axon degenerative response.
In these experiments, to determine whether the axon degeneration pathway requires either JNK or p38, we used pharmacological inhibitors of each MAP kinase in the DRG axotomy model. Wild-type DRG cultures were treated with the JNK inhibitor SP600215 and the p38 inhibitor SB203580 starting from 24 hours before axotomy and for the remainder of the experiment.
Unless noted, vehicle and inhibitors were added 24 hours pre-axotomy and left on for the duration of the experiment. FIG. 3A: Vehicle (DMSO). FIG. 3B: SB203580 (P38 inhibitor). FIG. 3C: SP600215 (JNK inhibitor). FIG. 3D: SP600215 added 24 hr pre-axotomy, and removed just before axotomy. FIG. 3E: SF600215 added concurrently with axotomy. FIG. 3F: SP600215 added 3 hours post-axotomy. FIG. 3G: SP600215 added concurrent with axotomy and removed 3 hours post-axotomy.

cultured DRG neurons = conditions: morphologically similar to that induced by axotomy (Wang et al. 2000; FIG. 2); cited from earlier work

Structure (SMILES)	degeneration of DRG axons following axotomy (DRG axons; added 3 hours post-axotomy and continued for the rest of the experiment (FIG. 3F))	degeneration of DRG axons following axotomy (DRG axons; added 24 hr pre-axotomy, and removed just before axotomy (FIG. 3D))	degeneration of DRG axons following axotomy (DRG axons; added concurrent with axotomy and removed 3 hours post-axotomy (FIG. 3G), vs vehicle (DMSO))	degeneration of DRG axons following axotomy (DRG axons; added concurrently with axotomy (FIG. 3E))	degeneration of DRG axons following axotomy (DRG axons; inhibitor added 24 hours pre-axotomy and left on for the duration of the experiment, 24 hours post-axotomy, vs vehicle (DMSO) (FIG. 3B, 3C))	axon degeneration triggered by the drug (cultured DRG neurons)
O=C1c2ccccc2-c2n[nH]c3cccc1c23 [SP600215, Anthra[1,9-cd]pyrazol-6(2H)-one; 1,9-pyrazoloanthrone]	did not decrease axon degeneration	not protective	significantly less degenerated than A	protective	significantly less degenerated than A	–
CC[C@]1(O)C[C@H]2CN(CCc3c([nH]c4ccccc34)[C@@](C(=O)OC)(c3cc4c(cc3OC)N(C=O)[C@H]3[C@@](O)(C(=O)OC)[C@H](OC(C)=O)[C@]5(CC)C=CCN6CC[C@]43[C@@H]65)C2)C1 [vincristine]	–	–	–	–	–	triggers an axon degeneration
